Data set [1] deals with importin-β/RanGTP-mediated nuclear import. Kind of data set: nuclear import of GFP-NLS reporter in permeabilized HeLa cells. In kind it is cell-based, human. Particulars: 100 μM importazole, permeabilized HeLa cells plus Xenopus egg extract. The method, then:
Because importazole binds importin-β and affects the RanGTP/importin-β interaction, importazole was tested to determine whether it inhibits the nuclear import of any protein bearing a classical nuclear localization signal (NLS). This was first tested using permeabilized HeLa cells, in which nuclear import of a GFP-NLS reporter can be reconstituted in vitro. Digitonin-permeabilized cells were incubated with a GFP-NLS reporter plus Xenopus laevis egg extracts as a source of soluble transport factors including Ran, importin-α, and importin-β.
HeLa cells were permeabilized and treated with an import reporter and cytosol from Xenopus laevis […] as described by Adam et al. (1990) J. Cell Biol. 111:807-816.

The next data set is described as follows: solubility in water. It counts as physicochemical.
The target of a further data set is T1, RanGTP (Homo sapiens, UniProt P62826, Q69L).
T1 construct: made in house; host or cells: SG13 cells (E. coli)
Briefly: fluorescent thermal shift assay (Sypro Orange), RanGTP (RanQ69L). In kind it is binding. Particulars: 2 μM RanQ69L, 50 μM importazole. The method, then: Experiments were performed using Applied Biosystems StepOnePlus™ Real-Time polymerase chain reaction (RT-PCR) System. Protein stocks were diluted in PBS and added 70% v/v to a Microamp® Fast 96-well Reaction Plate and maintained on ice. Compounds (importazole and control compound 3016) were then added at 30% v/v in 3% DMSO. Freshly prepared 100× water based-dilution of Sypro® Orange Protein Gel Stain was then added at 1% v/v to reach a final reaction volume of 20 μl. Samples were mixed by gentle pipetting. After sealing the plates with Microamp™ Optical Adhesive Film, the plate was subjected to a heating cycle composed of a 10 sec prewarming step at 25° C. and a gradient between 25° C. and 95° C. with a 0.3° C. ramp. Data was analyzed using the StepOnePlus™ Software v2.1.

In data set [2] the test system is spindle assembly around sperm chromosomes. Kind of data set: spindle assembly in metaphase-arrested Xenopus egg extracts. Further details: species or system Xenopus laevis. The following applies: 100 μM importazole. The text has this:
In order to determine whether importazole also disrupts mitosis, importazole was first tested in metaphase-arrested Xenopus egg extracts, which rely heavily on a RanGTP gradient for spindle assembly around sperm chromosomes. […] The effect was similar to that of adding a truncated importin-β (amino acids 71-876), a version that no longer binds to RanGTP and therefore sequesters its cargoes. […] Thus, importazole caused dramatic effects on spindle assembly consistent with the known role of the importin-β/RanGTP pathway in the Xenopus egg extract system, and is not a general microtubule inhibitor.
(§1) Xenopus laevis egg extracts were prepared as described by Hannak et al. (2006) Nat. Protoc. 1:2305-2314. For in vitro spindle assembly, Xenopus laevis sperm DNA was added to egg extracts supplemented with rhodamine-labeled tubulin. Asters were formed by addition of 5% DMSO. DNA was stained with Hoechst dye. The formation of microtubule-based structures was assessed using epifluorescence microscopy after a 30-minute room temperature incubation. In vitro microtubule polymerization and pelleting assays were performed by incubating 25 μM bovine tubulin, 1 mM GTP, and 5% DMSO in BRB80 buffer (80 mM PIPES, 1 mM MgCl2, 1 mM EGTA, pH 6.8) at 37° C. for 30 minutes. Polymerized microtubules were pelleted through a sucrose cushion, resuspended, and analyzed by SDS PAGE.

In data set [3] the test system is mitotic importin-β cargo release. Kind of data set: Rango-3 FRET sensor FLIM in mitotic HeLa cells. Particulars: DMSO controls 0.12+/−0.4 ns. It counts as cell-based, human. From the text: A key feature of importazole, a cell-permeable importin-β/RanGTP inhibitor, is its ability to dissect novel roles of this pathway in dividing human cells, which also provide a system to analyze mitotic gradients of released cargos using FRET probes. If importazole disrupts the interaction of importin-β with RanGTP, then the chromatin-localized FRET gradient of the cargo probe Rango should be reduced, since it undergoes FRET when released from importin-β in HeLa cells. […] Thus, importazole impairs mitotic importin-β cargo release in HeLa cells.
The Rango-3 FRET sensor is an improved version of Rango and was created by replacing Cerulean-EYFP donor-acceptor pair in Rango with EGFP as a donor and non-fluorescent acceptor sREACh which was modified by the introduction of mild dimerization mutations. […] The emission was collected from a custom side port, filtered through a 525 nm bandpass filter (ET525/50 Chroma) and detected by a HPM-100-40 module (Becker & Hickl) containing a hybrid Hamamatsu R10467-40 GaAsP photomultiplier. Two to three days before the experiment, HeLa cells were transfected with a pSG8 plasmid containing the Rango-3 open reading frame (pK135) to induce sensor expression. […] Fluorescence lifetime images were produced and analyzed using SPCI software (Becker & Hickl).

The next data set has as its system microtubule asters. Briefly: DMSO-induced aster assembly in Xenopus egg extracts. Further details: species or system Xenopus laevis. The following applies: 5% DMSO. The method, then:
as §1

Molecules are shown by their SMILES. In brackets after ≈: the same amount, converted by molar mass.

For orientation: solubility means the concentration that dissolves in the medium under given conditions. A high value points to a readily soluble substance. Turning to `CC(Nc1nc(N2CCCC2)nc2ccccc12)c1ccccc1` (stereo not drawn) [importazole, (1-phenyl-ethyl)-(2-pyrrolidin-1-yl-quinazolin-4-yl)-amine], the “nuclear import of GFP-NLS reporter” value in data set [1] is reported as “blocked import”. Moreover, in the data set “solubility in water”, the solubility was roughly 100 µM (≈ 31.8 µg/mL). Further, the “effect on melting curve of RanGTP” value on RanGTP is “did not significantly affect the melting curves”. For the same compound, the “sperm nuclei at which normal bipolar microtubule structures were prevented from forming” value in data set [2] worked out at 80%. Further, the “difference in fluorescence lifetime of Rango-3 donor GFP between chromosomes and distal cytoplasm” value in data set [3] was 0.07+/−0.03 ns. The “formation of microtubule asters induced by DMSO in the extract” value with microtubule asters was “did not impair the formation of microtubule asters”.
